Structures can show the parent of a compound that is named as a salt.
Target: T1, IRAK4 (Homo sapiens, UniProt Q9NWZ3)
T1 sequence (Q9NWZ3 1-460): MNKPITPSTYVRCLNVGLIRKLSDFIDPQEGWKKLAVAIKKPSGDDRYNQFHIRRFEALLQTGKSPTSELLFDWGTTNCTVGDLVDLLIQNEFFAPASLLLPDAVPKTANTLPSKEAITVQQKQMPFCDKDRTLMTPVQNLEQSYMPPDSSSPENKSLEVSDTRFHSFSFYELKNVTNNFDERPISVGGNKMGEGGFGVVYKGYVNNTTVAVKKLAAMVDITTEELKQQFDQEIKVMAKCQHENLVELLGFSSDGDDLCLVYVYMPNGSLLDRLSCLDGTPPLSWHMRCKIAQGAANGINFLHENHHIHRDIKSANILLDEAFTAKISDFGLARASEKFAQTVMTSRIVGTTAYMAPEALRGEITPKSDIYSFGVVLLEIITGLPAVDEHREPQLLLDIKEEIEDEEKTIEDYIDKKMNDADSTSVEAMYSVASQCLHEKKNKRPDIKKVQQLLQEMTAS
Assay: ALE THP1 HTRF (IRAK4 degradation in THP1 cells, HTRF with anti-IRAK4 antibodies)
Assay type: cell-based
Set-up: THP1 Homogeneous Time Resolved Fluorescence (ALE THP1 HTRF) Procedure; endogenous in cells; host or cells: THP1
Conditions: THP1 cell lysate; for DC50: read-out: ALE THP1 HTRF EC50
Method: Cell culture media was prepared in a tissue culture hood in a sterile environment by adding 10% FBS and 1% Penicillin Streptomycin to 500 mL no phenol red RPMI 1640 media. The media was filtered through a Nalgene Bottle Top Filter and stored at 4° C.
For Homogenous Time Resolved Fluorescence (HTRF) assays, a Cisbio HTRF kit was used, which included: Lysis Buffer #1 4×, Blocking Reagent #3 100×, 20× Antibody 1 (Anti-IRAK4 d2), 20× Antibody 2 (Anti-IRAK4 k), and Detection Buffer.
4× Lysis Buffer was stored at 4° C. For use as 1× Lysis buffer, the 4× solution was diluted with de-ionized water (distilled water, Gibco Cat. #15230279) and 100× Blocking Reagent in a 1:3:0.04 volume ratio.
20× Antibody Solution aliquots were stored at −80° C. and the Detection Buffer was stored at 4° C. For use as a 1× Antibody Solution, the 20× Antibody Solution aliquot was diluted with Detection Buffer in a 1:19 volume ratio.
Cells were lysed at room temperature for 45 min with shaking. A BCA protein assay was performed and normalization was conducted to the desired total protein concentration with 1× lysis buffer. Next, 1× Antibody Solutions were prepared by adding 380 μL Detection Buffer to 20 μL 20× Antibody Solution aliquots and mixing well. 1× Antibody Solutions were combined 1:1 and briefly vortexed. For control wells, 20 μL 1× anti IRAK4-k Antibody Solution was saved. The 384-well plate (ProxiPlate-384 Plus, Perkin Elmer Cat. #6008289) was loaded by adding 4 μL of the mixed Antibody Solution to empty wells using a single channel repeater. Using a multi-channel repeater, 16 μL lysate was added per well, and any bubbles that were formed were popped with 20 μL pipette tips and Kimwipe edges. In column 10, triplicates of each control were prepared. In wells A10, B10, and C10, buffer control was prepared by adding 16 μL Lysis Buffer and 4 μL Detection Buffer. In wells D10, E10, and F10, cryptate control was prepared by adding 16 μL Lysis Buffer, 2 μL Detection Buffer, and 2 μL 1× anti-IRAK4-k Antibody Solution. In wells G10, H10, and I10, a negative control was prepared by adding 16 μL Lysis Buffer and 4 μL mixed Antibody Solution. The plate was sealed with a clear seal and covered with an aluminum lid. The plate was spun down at 800 g for 5 min and incubated in the dark at room temperature overnight. The next day, the plate was spun down at 800 g for 5 min. The samples were analyzed by a plate reader (Envision, PerkinElmer) using the Desnor 384 HTRF program.

| SMILES | ALE THP1 HTRF YMIN [%] | DC50 [nM] |
| --- | --- | --- |
| N[C@@H]1C[C@@H](F)CN(c2ccn3ncc(C(=O)Nc4cn([C@H]5CC[C@H](CCN6CCC[C@H](c7ccc(C8CCC(=O)NC8=O)cc7)C6)CC5)nc4C(F)F)c3n2)C1 (stereo in doubt) [Compound P-29] | >95 | > 10000 |
| N[C@@H]1C[C@@H](F)CN(c2ccn3ncc(C(=O)Nc4cn([C@H]5CC[C@H](CN6CCN(C(=O)c7ccc(C8CCC(=O)NC8=O)cc7)CC6)CC5)nc4C(F)(F)F)c3n2)C1 (some centres unmarked) [Compound P-4] | 32 | > 10000 |
| N[C@@H]1C[C@@H](F)CN(c2ccn3ncc(C(=O)Nc4cn([C@H]5CC[C@H](CN6CCC(Nc7ccc(C8CCC(=O)NC8=O)cc7)CC6)CC5)nc4C(F)(F)F)c3n2)C1 (stereo partly drawn) [Compound P-5, N-[1-[4-[[4-[4-(2,6-dioxo-3-piperidyl)anilino]-1-piperidyl]methyl]cyclohexyl]-3-(trifluoromethyl)pyrazol-4-yl]-5-[(3R,5R)-3-amino-5-fluoro-1-piperidyl]pyrazolo[1,5-a]pyrimidine-3-carboxamide hydrochloride] | 45 | 57 |
| N[C@@H]1C[C@@H](F)CN(c2ccn3ncc(C(=O)Nc4cn([C@H]5CC[C@H](CN6CCC(CNc7cccc(C8CCC(=O)NC8=O)c7)CC6)CC5)nc4C(F)(F)F)c3n2)C1 (stereo partly drawn) [Compound P-6, 5-((3R,5R)-3-amino-5-fluoropiperidin-1-yl)-N-(1-((1r,4r)-4-((4-(((3-(2,6-dioxopiperidin-3-yl)phenyl)amino)methyl)piperidin-1-yl)methyl)cyclohexyl)-3-(trifluoromethyl)-1H-pyrazol-4-yl) pyrazolo[1,5-a]pyrimidine-3-carboxamide hydrochloride] | 15 | 17 |
| N[C@@H]1C[C@@H](F)CN(c2ccn3ncc(C(=O)Nc4cn([C@H]5CC[C@H](CN6CCC(Nc7cccc(C8CCC(=O)NC8=O)c7)CC6)CC5)nc4C(F)(F)F)c3n2)C1 (some centres unmarked) [Compound P-8] | >95 | > 10000 |
| N[C@@H]1C[C@@H](F)CN(c2ccn3ncc(C(=O)Nc4cn([C@H]5CC[C@H](C(=O)N6CCN(Cc7ccc(C8CCC(=O)NC8=O)cc7)CC6)CC5)nc4C(F)(F)F)c3n2)C1 (some centres unmarked) [Compound P-12] | 57 | 6860 |
| N[C@@H]1C[C@@H](F)CN(c2ccn3ncc(C(=O)Nc4cn([C@H]5CC[C@H](CN6CCN(Cc7ccc(C8CCC(=O)NC8=O)cc7)CC6)CC5)nc4C(F)(F)F)c3n2)C1 (some centres unmarked) [Compound P-13] | 18 | 405 |
| N[C@@H]1C[C@@H](F)CN(c2ccn3ncc(C(=O)Nc4cn([C@H]5CC[C@H](C(=O)NC6CCN(c7cccc(C8CCC(=O)NC8=O)c7)CC6)CC5)nc4C(F)F)c3n2)C1 (some centres unmarked) [Compound P-14] | 64 | > 10000 |
| N[C@@H]1C[C@@H](F)CN(c2ccn3ncc(C(=O)Nc4cn([C@H]5CC[C@H](C(=O)NC6CCN(c7ccc(C8CCC(=O)NC8=O)cc7)CC6)CC5)nc4C(F)F)c3n2)C1 (stereo partly drawn) [Compound P-15, 5-[(3R,5R)-3-amino-5-fluoro-1-piperidyl]-N-[3-(difluoromethyl)-1-[4-[[1-[4-(2,6-dioxo-3-piperidyl)phenyl]-4-piperidyl]carbamoyl]cyclohexyl]pyrazol-4-yl]pyrazolo[1,5-a]pyrimidine-3-carboxamide hydrochloride] | 11 | 4 |
| CN(CC1CCN(C(=O)[C@H]2CC[C@H](n3cc(NC(=O)c4cnn5ccc(N6C[C@H](N)C[C@@H](F)C6)nc45)c(C(F)F)n3)CC2)CC1)c1cccc(C2CCC(=O)NC2=O)c1 (stereo partly drawn) [Compound P-16, 5-((3R,5R)-3-amino-5-fluoropiperidin-1-yl)-N-(3-(difluoromethyl)-1-((1r,4r)-4-(4-(((3-(2,6-dioxopiperidin-3-yl)phenyl)(methyl)amino)methyl)piperidine-1-carbonyl)cyclohexyl)-1H-pyrazol-4-yl)pyrazolo[1,5-a]pyrimidine-3-carboxamide hydrochloride] | 18 | 28 |
| N[C@@H]1C[C@@H](F)CN(c2ccn3ncc(C(=O)Nc4cn([C@H]5CC[C@H](C(=O)N6CCC7(CC6)CN(c6cccc(C8CCC(=O)NC8=O)c6)C7)CC5)nc4C(F)F)c3n2)C1 (some centres unmarked) [Compound P-17] | 73 | > 10000 |
| N[C@@H]1C[C@@H](F)CN(c2ccn3ncc(C(=O)Nc4cn([C@H]5CC[C@H](CN6CCC7(CC6)CN(c6cccc(C8CCC(=O)NC8=O)c6)C7)CC5)nc4C(F)F)c3n2)C1 (some centres unmarked) [Compound P-18] | 13 | 9180 |
| CN(CC1CCN(C[C@H]2CC[C@H](n3cc(NC(=O)c4cnn5ccc(N6C[C@H](N)C[C@@H](F)C6)nc45)c(C(F)F)n3)CC2)CC1)c1cccc(C2CCC(=O)NC2=O)c1 (stereo partly drawn) [Compound P-19, N-[3-(Difluoromethyl)-1-[4-[4-[[3-(2,6-dioxo-3-piperidyl)-N-methyl-anilino]methyl]-1-piperidyl]methyl]cyclohexyl]pyrazol-4-yl]-5-[(3R,5R)-3-amino-5-fluoro-1-piperidyl]pyrazolo[1,5-a]pyrimidine-3-carboxamide dihydrochloride] | 11 | 10 |
| N[C@@H]1C[C@@H](F)CN(c2ccn3ncc(C(=O)Nc4cn([C@H]5CC[C@H](CCN6CCC(c7ccc(C8CCC(=O)NC8=O)cc7)CC6)CC5)nc4C(F)F)c3n2)C1 (some centres unmarked) [Compound P-20] | 12 | 11 |
| N[C@@H]1C[C@@H](F)CN(c2ccn3ncc(C(=O)Nc4cn([C@H]5CC[C@H](CCN6CCN(c7ccc(C8CCC(=O)NC8=O)cc7)CC6)CC5)nc4C(F)F)c3n2)C1 (stereo partly drawn) [Compound P-21, N-[3-(Difluoromethyl)-1-[4-[2-[4-[4-(2,6-dioxo-3-piperidyl)phenyl]piperazin-1-ylethyl]cyclohexyl]pyrazol-4-yl]-5-[(3R,5R)-3-amino-5-fluoro-1-piperidyl]pyrazolo[1,5-a]pyrimidine-3-carboxamide formic acid salt] | 15 | 10 |
| N[C@@H]1C[C@@H](F)CN(c2ccn3ncc(C(=O)Nc4cn([C@H]5CC[C@H](CCN6CCN(c7cccc(C8CCC(=O)NC8=O)c7)CC6)CC5)nc4C(F)F)c3n2)C1 (some centres unmarked) [Compound P-22] | 43 | 3010 |
| N[C@@H]1C[C@@H](F)CN(c2ccn3ncc(C(=O)Nc4cn([C@H]5CC[C@H](CCN6CCC7(CC6)CN(c6ccc(C8CCC(=O)NC8=O)cc6)C7)CC5)nc4C(F)F)c3n2)C1 (stereo partly drawn) [Compound P-23, N-[3-(Difluoromethyl)-1-[4-[2-[2-[4-(2,6-dioxo-3-piperidyl)phenyl]-2,7-diazaspiro[3.5]nonan-7-yl]ethyl]cyclohexyl]pyrazol-4-yl]-5-[(3R,5R)-3-amino-5-fluoro-1-piperidyl]pyrazolo[1,5-a]pyrimidine-3-carboxamide formic acid salt] | 15 | 11 |
| N[C@@H]1C[C@@H](F)CN(c2ccn3ncc(C(=O)Nc4cn([C@H]5CC[C@H](CCN6CCC(Nc7cccc(C8CCC(=O)NC8=O)c7)CC6)CC5)nc4C(F)F)c3n2)C1 (stereo partly drawn) [Compound P-24, 5-((3R,5R)-3-Amino-5-fluoropiperidin-1-yl)-N-(3-(difluoromethyl)-1-((1r,4r)-4-(2-(4-((3-(2,6-dioxopiperidin-3-yl)phenyl)amino)piperidin-1-yl)ethyl)cyclohexyl)-1H-pyrazol-4-yl) pyrazolo[1,5-a]pyrimidine-3-carboxamide dihydrochloride] | 12 | 12 |
| N[C@@H]1C[C@@H](F)CN(c2ccn3ncc(C(=O)Nc4cn([C@H]5CC[C@H](C(=O)NC6CCN(c7ccc(C8CCC(=O)NC8=O)nc7)CC6)CC5)nc4C(F)F)c3n2)C1 (some centres unmarked) [Compound P-25] | 15 | 6 |
